Measured values from US12473289B2, “Heterocyclic compounds as delta-5 desaturase inhibitors and methods of use” (Amgen Inc., priority 2019, dated 2025).

Assays:
Delta-5-Desaturase (D5D) [1] = target: Delta-5-Desaturase (D5D) (Homo sapiens (Human), UniProt O60427); test: In vitro measurement of Delta-5-Desaturase inhibitory activity using DGLA-CoA and Arachidonyl-CoA mass spectrometric assays; assay type: biochemical; details: membrane preparations of D5D-overexpressing HEK293 6E cells; averaged over at least two independent runs
Procedure, shortened: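 Membranes from D5D-overexpressing HEK293 6E cells (10 μg/mL final) in Tris pH 7.5 with MgCl2, octyl glucoside and TCEP were mixed 1:1 with substrate solution (0.01 mM DGLA, 0.25 mM NADH, 0.25 mM ATP, 0.05 mM CoA) for 1 h at ambient temperature. RapidFire SPE-MS/MS MRM; IC50 by 4-parameter fit, ≥2 runs.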

Delta-5-Desaturase (D5D) [2] = target: Delta-5-Desaturase (D5D) (Mus musculus (Mouse), UniProt Q920L1); test: In vivo measurement of Delta-5-Desaturase inhibitory activity (plasma AA/DGLA ratio in DIO mice); details: single oral dose 30 mg/kg, read-out: Average % D5D Inhibition expressed as Plasma Endogenous AA/DGLA Ratio
[3] = tested on: Diet-Induced Obese (DIO) mice; test: Assessment of D5D inhibitor in Diet-Induced Obese (DIO) mice; assay type: in vivo; details: for Blood glucose: day 52, 4-hour fasted; for Cholesterol / Insulin / LDL cholesterol / Triglycerides: day 52, plasma; for Fat mass / Lean mass: day 54, EchoMRI; for AA / DGLA: day 56, plasma; for Body weight / Liver weights / epididymal WAT / inguinal WAT: day 56
Text: Assessment of D5D) Inhibitor in Diet-Induced Obese (DIO) Mice
Thirty-six male C57BL/6J DIO mice (Jackson Laboratories, stock No.: 380050) fed high-fat diet (Research Diets, Inc., D12492) for 14 weeks. All animals were given free access to water and chow. Animals were acclimated to per os dosing for 3 days prior to the start of the experiment. Animals were randomized on body weight, fat mass, lean mass, and blood glucose concentrations in to 4 groups of 8 animals per group. Animals were daily dosed per os with either: vehicle (2% hydroxypropyl methyl cellulose, 1% Tween 80 in water), Example 1-68 at 30 mg/kg, Example 1-34 at 10 mg/kg, and Example 1-27 at 10 mg/kg, all compounds were formulated in 2% hydroxypropyl methylcellulose, 1% Tween 80 in water. […] On day 52, a 4-hour fasted blood collection was performed, blood glucose was immediately measured, and plasma samples were created from the remaining blood and used to measure cholesterol, triglycerides, LDL cholesterol, and insulin. On day 54, body composition (EchoMRI) was determined. On day 56 the animals were sacrificed, and plasma was collected for measurement of DGLA and AA concentrations. Liver, epididymal white adipose tissue and inguinal white adipose tissue weights were recorded. Data was analyzed using GraphPad Prism v. 7.04.
All compounds led to weight loss over the course of the experiment (Table 28) compared to vehicle controls. Consistently fat and lean mass was reduced, along with lower inguinal and epididymal white adipose tissue (WAT) weights at necropsy. Blood glucose and plasma insulin levels were both reduced by the FADS1 inhibitors, along with reductions in plasma cholesterol, LDL cholesterol and triglycerides. Evidence of target engagement was established by observing increases in plasma DGLA and decreases in plasma AA.

[4] = day 50-52, 10 mg/kg daily per os

Delta-5-Desaturase (D5D) (Homo sapiens (Human), UniProt O60427), sequence (O60427 whole entry, species assumed): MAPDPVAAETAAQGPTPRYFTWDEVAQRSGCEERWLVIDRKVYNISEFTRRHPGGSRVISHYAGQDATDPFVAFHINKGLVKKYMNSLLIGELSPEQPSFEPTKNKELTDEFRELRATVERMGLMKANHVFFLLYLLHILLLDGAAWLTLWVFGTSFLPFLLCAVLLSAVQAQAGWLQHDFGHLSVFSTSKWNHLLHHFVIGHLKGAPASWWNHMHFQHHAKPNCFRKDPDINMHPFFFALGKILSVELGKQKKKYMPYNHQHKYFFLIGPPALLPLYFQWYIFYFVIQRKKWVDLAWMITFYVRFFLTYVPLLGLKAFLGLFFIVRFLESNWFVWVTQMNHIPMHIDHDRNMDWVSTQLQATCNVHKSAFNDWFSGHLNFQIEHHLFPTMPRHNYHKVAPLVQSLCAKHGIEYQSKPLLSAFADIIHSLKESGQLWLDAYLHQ
Delta-5-Desaturase (D5D) (Mus musculus (Mouse), UniProt Q920L1), sequence (Q920L1 whole entry): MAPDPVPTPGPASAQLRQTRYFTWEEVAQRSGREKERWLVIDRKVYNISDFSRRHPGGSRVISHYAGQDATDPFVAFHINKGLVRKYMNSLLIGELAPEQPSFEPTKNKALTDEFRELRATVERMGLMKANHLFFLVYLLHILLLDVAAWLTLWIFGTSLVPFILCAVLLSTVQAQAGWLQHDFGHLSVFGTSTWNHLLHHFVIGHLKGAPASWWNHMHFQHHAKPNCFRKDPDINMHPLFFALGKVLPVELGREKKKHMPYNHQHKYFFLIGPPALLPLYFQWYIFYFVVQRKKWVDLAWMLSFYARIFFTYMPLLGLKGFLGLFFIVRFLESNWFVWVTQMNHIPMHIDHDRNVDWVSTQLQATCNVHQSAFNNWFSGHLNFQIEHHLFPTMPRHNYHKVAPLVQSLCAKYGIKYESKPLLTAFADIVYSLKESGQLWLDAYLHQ

SMILES: N#Cc1ccn2c(=O)c(-c3cnn(CC(F)(F)C(F)(F)F)c3)c(C(F)(F)F)nc2c1 [Example 1-27, 4-oxo-3-(1-(2,2,3,3,3-pentafluoropropyl)-1H-pyrazol-4-yl)-2-(trifluoromethyl)-4H-pyrido[1,2-a]pyrimidine-8-carbonitrile]
- IC50 (Delta-5-Desaturase (D5D) [1]): 18.7 nM
- inhibition in vivo at 30 mg/kg (Delta-5-Desaturase (D5D) [2]): 78%
- Food consumption ([3]; day 0-2, 10 mg/kg daily per os): 2.5 ± 0.1 g/day
- Food consumption [3, 4]: 3.1 ± 0.1 g/day
- Blood glucose ([3]; 10 mg/kg daily per os): 178.8 ± 7.5 mg/dL
- Cholesterol ([3]; 10 mg/kg daily per os): 191.3 ± 14.5 mg/dL
- Insulin ([3]; 10 mg/kg daily per os): 3.3 ± 1.2 ng/mL
- LDL cholesterol ([3]; 10 mg/kg daily per os): 104.6 ± 9.1 mg/dL
- Triglycerides ([3]; 10 mg/kg daily per os): 24.1 ± 1.2 mg/dL
- Fat mass ([3]; 10 mg/kg daily per os): 16.9 ± 0.5 g
- Lean mass ([3]; 10 mg/kg daily per os): 28.1 ± 0.5 g
- AA ([3]; 10 mg/kg daily per os): 60.8 ± 1.9 µg/mL
- DGLA ([3]; 10 mg/kg daily per os): 310.3 ± 13.7 µg/mL
- Body weight ([3]; 10 mg/kg daily per os): 45.7 ± 1.1 g
- Liver weights ([3]; 10 mg/kg daily per os): 2.8 ± 0.2 g
- epididymal WAT ([3]; 10 mg/kg daily per os): 1.8 ± 0.1 g
- inguinal WAT ([3]; 10 mg/kg daily per os): 1.9 ± 0.1 g

SMILES: COc1ccn2c(=O)c(-c3cnn(CC(F)(F)C(F)(F)F)c3)c(C(F)(F)F)nc2c1 [Example 1-68, 8-methoxy-3-(1-(2,2,3,3,3-pentafluoropropyl)-1H-pyrazol-4-yl)-2-(trifluoromethyl)-4H-pyrido[1,2-a]pyrimidin-4-one]
- IC50 (Delta-5-Desaturase (D5D) [1]): 11.6 nM
- inhibition in vivo at 30 mg/kg (Delta-5-Desaturase (D5D) [2]): 80%
- Food consumption ([3]; day 0-2, 30 mg/kg daily per os): 2.7 ± 0.1 g/day
- Food consumption ([3]; day 50-52, 30 mg/kg daily per os): 2.6 ± 0.1 g/day
- Blood glucose ([3]; 30 mg/kg daily per os): 146.6 ± 7.1 mg/dL
- Cholesterol ([3]; 30 mg/kg daily per os): 166.2 ± 7.8 mg/dL
- Insulin ([3]; 30 mg/kg daily per os): 1.1 ± 0.2 ng/mL
- LDL cholesterol ([3]; 30 mg/kg daily per os): 86.5 ± 12.5 mg/dL
- Triglycerides ([3]; 30 mg/kg daily per os): 14.5 ± 1.0 mg/dL
- Fat mass ([3]; 30 mg/kg daily per os): 13.3 ± 1.0 g
- Lean mass ([3]; 30 mg/kg daily per os): 26.7 ± 0.5 g
- AA ([3]; 30 mg/kg daily per os): 38.0 ± 1.6 µg/mL
- DGLA ([3]; 30 mg/kg daily per os): 258.4 ± 8.5 µg/mL
- Body weight ([3]; 30 mg/kg daily per os): 40.7 ± 1.5 g
- Liver weights ([3]; 30 mg/kg daily per os): 2.9 ± 0.2 g
- epididymal WAT ([3]; 30 mg/kg daily per os): 1.6 ± 0.1 g
- inguinal WAT ([3]; 30 mg/kg daily per os): 1.6 ± 0.2 g

SMILES: COc1ccn2c(=O)c(-c3cnn(CC(F)(F)C(F)(F)F)c3)c(C(F)(F)F)nc2n1 [Example 1-34, 8-methoxy-3-(1-(2,2,3,3,3-pentafluoropropyl)-1H-pyrazol-4-yl)-2-(trifluoromethyl)-4H-pyrimido[1,2-a]pyrimidin-4-one]
- IC50 (Delta-5-Desaturase (D5D) [1]): 30.7 nM
- inhibition in vivo at 30 mg/kg (Delta-5-Desaturase (D5D) [2]): 66%
- Food consumption ([3]; day 0-2, 10 mg/kg daily per os): 2.2 ± 0.1 g/day
- Food consumption [3, 4]: 3.0 ± 0.1 g/day
- Blood glucose ([3]; 10 mg/kg daily per os): 150.5 ± 8.3 mg/dL
- Cholesterol ([3]; 10 mg/kg daily per os): 177.1 ± 12.6 mg/dL
- Insulin ([3]; 10 mg/kg daily per os): 0.6 ± 0.2 ng/mL
- LDL cholesterol ([3]; 10 mg/kg daily per os): 88.6 ± 9.2 mg/dL
- Triglycerides ([3]; 10 mg/kg daily per os): 15.6 ± 2.3 mg/dL
- Fat mass ([3]; 10 mg/kg daily per os): 7.4 ± 0.9 g
- Lean mass ([3]; 10 mg/kg daily per os): 26.6 ± 0.7 g
- AA ([3]; 10 mg/kg daily per os): 29.4 ± 0.9 µg/mL
- DGLA ([3]; 10 mg/kg daily per os): 161.4 ± 8.5 µg/mL
- Body weight ([3]; 10 mg/kg daily per os): 34.7 ± 1.6 g
- Liver weights ([3]; 10 mg/kg daily per os): 2.9 ± 0.3 g
- epididymal WAT ([3]; 10 mg/kg daily per os): 0.9 ± 0.1 g
- inguinal WAT ([3]; 10 mg/kg daily per os): 0.8 ± 0.1 g
